These are literature values, as cited in patent US11730747B2, “Drink product and use thereof” (HYGIA PHARMACEUTICALS, LLC, priority 2013, dated 2023).

One data set has as its system JB6 cells. As to conditions: IP6 0.5-2 mM, three-dimensional growth in soft agar.
The test system of the next data set is PC-3. Particulars: PC-3 cells.
For a further data set, the system named is large intestinal cancer. Particulars: rats; treatment begun 5 months after carcinogenic induction with azoxymethane.
Data set [1] relates to human colon cancer cell lines.
In a further data set the test system is pulmonary adenomas. As to conditions: diet containing 3% myo-inositol, fed beginning 1 week after exposure to benzo[a]pyrene.
The subject of the next data set is PI3K. Particulars: lung adenocarcinoma cell line.
The next data set concerns bronchial dysplasia. As to conditions: smokers.

Structures are written as SMILES. pEC50: −log10 of the molar value.

For the molecule `O=P(O)(O)O[C@H]1[C@H](OP(=O)(O)O)[C@@H](OP(=O)(O)O)[C@H](OP(=O)(O)O)[C@@H](OP(=O)(O)O)[C@H]1OP(=O)(O)O` [IP6, inositol-1,2,3,4,5,6-hexakisphosphate], the “inhibition of EGF or TPA-induced cell transformation” value in the data set with JB6 cells is on record as “dose-dependent inhibition”. Besides, in the data set on PC-3, the “levels of integrin linked kinase 1 (ILK1) and cyclin D1” value was “strong decrease”; the “levels of phosphorylated AKT and GSK3α/β” value is “reduced levels”; the “phosphorylation levels of the p85 subunit of PI3K at Tyr458 and phosphoinositide-dependent kinase-1 at Ser241” value is given as “reduced phosphorylation levels”. Besides, the large intestinal cancers result with large intestinal cancer is “significantly (p=0.02) reducing”. Besides, the “growth of human colon cancer cell lines in vitro” value in data set [1] is listed as “inhibits growth”.

With `O[C@H]1[C@H](O)[C@@H](O)[C@H](O)[C@@H](O)[C@H]1O` [myoinositol], the “reduction of the number of pulmonary adenomas” value in the data set on pulmonary adenomas is given as 40%. Besides, the PI3K activity result in the data set with PI3K was “dose-dependent decreases”. Also, the pEC50 in the data set with PI3K (read-out: median effective concentration (ECs) for PI3K inhibition) was 7.14. Further, in the data set on bronchial dysplasia (18 grams per day for 3 months), the “reduction in the systolic and diastolic blood pressures (average)” value is listed as 10 mm Hg. The “rate of regression of preexisting dysplastic lesions” value in the data set with bronchial dysplasia (18 grams per day for 3 months, versus 48%, P=0.014) is recorded as 91%. Further, in the data set on bronchial dysplasia (oral administration, dose escalation study for one month), the maximum tolerated dose was 18 grams per day. In the data set on bronchial dysplasia (oral myo-inositol), the side effects result is “mild and mainly gastrointestinal in nature”.
